Data set [1] deals with T1, human neutrophil elastase (HNE) (Homo sapiens, UniProt P08246).
T1 sequence (P08246 30-267): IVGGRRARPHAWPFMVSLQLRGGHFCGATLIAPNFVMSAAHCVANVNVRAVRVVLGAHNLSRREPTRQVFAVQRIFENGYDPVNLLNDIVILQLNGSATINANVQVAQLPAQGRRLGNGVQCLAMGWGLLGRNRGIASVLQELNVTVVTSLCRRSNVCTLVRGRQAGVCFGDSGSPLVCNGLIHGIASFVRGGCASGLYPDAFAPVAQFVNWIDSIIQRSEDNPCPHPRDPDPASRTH
As to the kind of experiment: Acute Hemorrhagic Assay (HNE-induced lung hemorrhage in hamsters). The settings on record: hamster, 50 μg/animal HNE intratracheal, 4 h, read-out: ED50 (inhibition of HNE-induced hemorrhage). In kind it is in vivo, Male Syrian hamsters.
Method: This assay relies on monitoring only the amount of hemorrhage in the lung following intratracheal administration of human neutrophil elastase (HNE). Hemorrhage is quantified by disrupting erythrocytes recovered in lung lavage fluid and comparing that to dilutions of whole hamster blood. […] Male Syrian hamsters (fasted for 16-18 hours prior to use) are lightly anaesthetised with Brevital sodium (30 mg/kg i.p.). […] Four hours after enzyme administration, the animals are killed with an overdose of pentobarbital sodium, the thorax opened and the lungs and heart removed and the lungs cleared of extraneous material. The excised lungs are lavaged with three changes of 2 ml PBS via a tracheal cannula. The recovered lavages are pooled, the volumes (about 5 mL) are recorded and the lavages stored at 4 ° C. until assayed. For calculation of the amount of blood in each sample, the thawed lavages and a sample of whole hamster blood are sonicated to disrupt erythrocytes and appropriately diluted into individual wells of a 96-well microtiter plate. The optical densities (OD) of the disrupted lavages and blood samples are determined at 540 nm. The (μL blood equivalents) / (mL lavage) are determined by comparing the OD of the test samples with the OD of the standard curve prepared from whole hamster blood. The total μL equivalents of blood recovered is determined by multiplying recovered lavage volume by the (μL blood equivalents) / (mL lavage) for each sample.

Data set [2] addresses T2, human leukocyte elastase (HLE) (Homo sapiens, UniProt P08246).
T2 sequence (P08246 30-267): T1 sequence (P08246 30-267)
The data set can be described thus: Inhibition of human leukocyte elastase (HLE) on low molecular weight peptide substrate methoxy-succinyl-alanyl-alanyl-prolyl-valine-p-nitroanilide. In kind it is biochemical. Particulars: kinetic determination, read-out: Ki (dissociation constant of the complex formed from the interaction of the inhibitor with HLE). The procedure:
The potency of the compound of the invention (or a particular form thereof) to act as an inhibitor of human leukocyte elastase (HLE) on the low molecular weight peptide substrate methoxy-succinyl-alanyl-alanyl-prolyl-valine-p-nitroanilide is determined as described in U.S. Pat. No. 4,910,190. The potency of the compound is evaluated by obtaining a kinetic determination of the dissociation constant, Ki, of the complex formed from the interaction of the inhibitor with HLE.

Data set [3] can be described thus: Solubility in aqueous buffer. In kind it is physicochemical. Particulars: crystalline hydrated forms.
The next data set can be described thus: Hygroscopicity. In kind it is physicochemical.
Another data set is described as follows: Bioavailability. In kind it is in vivo. The settings on record: crystalline hydrated forms.

Like-named read-outs stand apart in the source and are kept apart here. Where a SMILES comes first, the peptide text is derived from it. [ ]: non-standard residue; d: D form. The star is where a group is joined. ξ: configuration not given here. ξV = CC(C)C(N)C(=O)O; CF3 = FC(F)(F)*; Moc = COC(=O)*

Take `COC(=O)N[C@H](C(=O)N1CCC[C@H]1C(=O)NC(C(=O)C(F)(F)F)C(C)C)C(C)C` (stereo partly drawn) [Example 1, (S)-1-[(S)-2-(methoxycarbonylamino)-3-methylbutyryl]-N-[2-methyl-1-(2,2,2-trifluoroacetyl)propyl]pyrrolidine-2-carboxamide] (Moc-Val-Pro-[ξV]-CF3): the ED50 – broadly, the dose that gives a 50% effect, or the effect in half of the subjects – in data set [1] (oral dosing) worked out at 4.5 mg/kg. Besides, the inhibition constant (Ki) (usually a measure of affinity in units of concentration, obtained from inhibition or displacement) in data set [2] stood at 36 nM.

For `COC(=O)N[C@H](C(=O)N1CCC[C@H]1C(=O)N[C@H](C(=O)C(F)(F)F)C(C)C)C(C)C` [Example 2, (S)-1-[(S)-2-(methoxycarbonylamino)-3-methylbutyryl]-N-[(S)-2-methyl-1-(2,2,2-trifluoroacetyl)propyl]-pyrrolidine-2-carboxamide] (HELM PEPTIDE1{[COC(=O)[*:2]].V.P.V.[FC(F)(F)[*:1]]}$$$$V2.0), the median effective dose (ED50) in data set [1] (iv, i.v. administration) was 0.6 mg/kg; in data set [1] (oral dosing), 1.9 mg/kg. Also, the “solubility in aqueous buffer” value in data set [3] was “good solubility in aqueous buffer”. Also, in data set [2], the Ki was 9 nM. For the same compound, the hygroscopicity entry in “Hygroscopicity” (listed as Form A) is “non-hygroscopic”. For the same compound, the bioavailability result in the data set “Bioavailability” is listed as “good bioavailability”.

For `COC(=O)N[C@H](C(=O)N1CCC[C@H]1C(=O)N[C@H](C(=O)C(F)(F)F)C(C)C)C(C)C` [Example 10] (HELM PEPTIDE1{[COC(=O)[*:2]].V.P.V.[FC(F)(F)[*:1]]}$$$$V2.0), the hygroscopicity result in “Hygroscopicity” (listed as "ketone" form) was “hygroscopic”.

For `COC(=O)N[C@H](C(=O)N1CCC[C@H]1C(=O)N[C@H](C(=O)C(F)(F)F)C(C)C)C(C)C` [Example 8] (HELM PEPTIDE1{[COC(=O)[*:2]].V.P.V.[FC(F)(F)[*:1]]}$$$$V2.0), the hygroscopicity result in the data set “Hygroscopicity” (listed as Form B) was “non-hygroscopic”.
